In ChEMBL document CHEMBL3046286, “4-Fluorophenylhydrazones as potential COX-2 inhibitors: a novel, efficient, one pot solid phase synthesis, docking study and pharmacological evaluation” (2013):

What was measured:
Format in all cases: functional
Rattus norvegicus [1] = test: Antiinflammatory activity in Wistar albino rat assessed as carrageenan-induced paw edema at 50 mg/kg, po administered 30 mins prior to carrageenan-challenge measured after 1 hr relative to control
Rattus norvegicus [2] = test: Antiinflammatory activity in Wistar albino rat assessed as carrageenan-induced paw edema at 50 mg/kg, po administered 30 mins prior to carrageenan-challenge measured after 2 hrs relative to control
Rattus norvegicus [3] = test: Antiinflammatory activity in Wistar albino rat assessed as carrageenan-induced paw edema at 50 mg/kg, po administered 30 mins prior to carrageenan-challenge measured after 3 hrs relative to control; conditions: read-out: INH
Rattus norvegicus [4] = test: Antiinflammatory activity in Wistar albino rat assessed as carrageenan-induced paw edema at 50 mg/kg, ip administered 30 mins prior to carrageenan-challenge measured after 1 hr relative to control; conditions: route intraperitoneal
Rattus norvegicus [5] = test: Antiinflammatory activity in Wistar albino rat assessed as carrageenan-induced paw edema at 50 mg/kg, ip administered 30 mins prior to carrageenan-challenge measured after 3 hrs relative to control; conditions: route intraperitoneal
Rattus norvegicus [6] = test: Antiinflammatory activity in Wistar albino rat assessed as carrageenan-induced paw edema at 50 mg/kg, ip administered 30 mins prior to carrageenan-challenge measured after 2 hrs relative to control; conditions: route intraperitoneal

Row | Compound | inhibition in vivo at 50 mg/kg (Rattus norvegicus [1]) [%] | inhibition in vivo at 50 mg/kg (Rattus norvegicus [2]) [%] | inhibition in vivo at 50 mg/kg (Rattus norvegicus [3]) [%] | inhibition in vivo at 50 mg/kg (Rattus norvegicus [4]) [%] | inhibition in vivo at 50 mg/kg (Rattus norvegicus [5]) [%] | inhibition in vivo at 50 mg/kg (Rattus norvegicus [6]) [%]
1 | O=C(c1ccc(Br)cc1)C(NNc1ccc(F)cc1)C(=O)C(F)(F)F (stereo not drawn) | 17.3 | 30.4 | 43.2 | – | – | –
2 | COc1ccc(C(=O)C(NNc2ccc(F)cc2)C(=O)C(F)(F)F)cc1 (stereo not drawn) | 15.4 | 26.6 | 40.6 | – | – | –
3 | O=C(c1ccc([N+](=O)[O-])cc1)C(NNc1ccc(F)cc1)C(=O)C(F)(F)F (stereo not drawn) | 5.05 | 8.86 | 18.2 | – | – | –
4 | O=C(c1ccc(F)cc1)C(NNc1ccc(F)cc1)C(=O)C(F)(F)F (stereo not drawn) | 18.3 | 28.5 | 42.4 | – | – | –
5 | O=C(c1cccs1)C(NNc1ccc(F)cc1)C(=O)C(F)(F)F (stereo not drawn) | 4.11 | 7.93 | 17.4 | – | – | –
6 | O=C(O)Cc1ccccc1Nc1c(Cl)cccc1Cl [DICLOFENAC SODIUM] | – | – | – | 20.1 | 46.8 | 30.4
